Earlier results in US20030004116A1, “Noni extract for prevention of disease” (priority 2001, published 2003).

Experiments:
[1] = system: RSV-NRK cells expressing the src oncogene
[2] = system: K-ras-NRK cells; settings: reversible when compound withdrawn

## COc1c(C=O)c(O)cc2c1C(=O)c1ccccc1C2=O [Damnacathal]
[1]
  effect on cells: no effect
[2]
  morphology and cytoskeletal structure: induced normal morphology and cytoskeletal structure
